Common to all, as to assay: NCI tumour cell line growth inhibition, 48 h
Test [1] deals with NCI-H226.
For test [2], the system named is MDA-N.
The test system of test [3] is SN12C.
In test [4] the test system is U-251.
Test [5] relates to 786-0.
The test system of test [6] is NCI-H522.
Test [7] has as its system OVCAR-4.
Test [8] concerns SF-295.
For test [9], the system named is TK-10.
Test [10] relates to HOP-92.
Test [11] has as its system MCF7.
Test [12] relates to HL-60.
Test [13] concerns NCI-H23.
Test [14] concerns CCRF-CEM.
The test system of test [15] is OVCAR-8.
Test [16] concerns HOP-62.
In test [17] the test system is A498.
In test [18] the test system is SF-539.
Test [19] deals with CAKI-1.

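Results reflect a 48-hour exposure of cells in 96-well plates to compound at five concentrations. GI50 is the concentration that inhibits growth by half.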 Active and inactive are the calls of the source. Rule as the data show it: active = GI50 up to about 1.1 µM and inactive = higher.

On to `CC1CC(=O)NC2CC1C2(C)C` (stereo unspecified), for which the GI50 in test [1], in test [2], in test [3], in [4], in test [5] and in test [6] was > 100 µM (inactive) in each case. The GI50 in test [7], in [8], in test [9], in test [10], in test [11] and in [12] was > 100 µM (inactive) throughout. Further, the GI50 in test [13], in [14] and in test [15] was > 100 µM (inactive) each time.

Turning to `O=c1[nH]c2nccnc2c2c([N+](=O)[O-])cccc12`, the GI50 was 95.5 µM (inactive) in [1]; > 100 µM (inactive) in test [2]; > 100 µM (inactive) in [3]; > 100 µM (inactive) in test [4]; > 100 µM (inactive) in test [5]; 49.9 µM (inactive) in [6]. The GI50 in test [7] is > 100 µM (inactive); in test [8], > 100 µM (inactive); in test [16] it was > 100 µM (inactive); in [9] it was 81.8 µM (inactive); in test [17], > 100 µM (inactive); in [11], > 100 µM (inactive). In addition, the GI50 in test [18], in test [12], in test [13], in test [14] and in [15] was > 100 µM (inactive) each time.

`COC(=O)NC1(NC(=O)OC)NC(=O)c2cc(OC)c(OC)c(OC)c2N1`: the GI50 in test [1] is 31.1 µM (inactive); in [2] it was 3.15 µM (inactive); in test [3] it was 41.6 µM (inactive); in [4] it was < 0.01 µM (active); in test [5] it was 39 µM (inactive); in [6], 6.98 µM (inactive). For the same molecule, the GI50 is > 100 µM (inactive) in test [7]; 12.4 µM (inactive) in test [8]; 21.1 µM (inactive) in test [16]; 38 µM (inactive) in test [9]; 63.8 µM (inactive) in [19]; 32.2 µM (inactive) in test [17]. The GI50 is 30.3 µM (inactive) in test [11]; 23.6 µM (inactive) in test [18]; 8.15 µM (inactive) in test [12]; 32.7 µM (inactive) in [13]; 82 µM (inactive) in test [14]; 64.4 µM (inactive) in [15].

With `O=Cc1[nH]c(=O)[nH]c(=O)c1C(=O)O`, the GI50 in [1], in [2], in test [3], in test [4], in test [5] and in test [6] was > 100 µM (inactive) in each case. Moreover, the GI50 in [7], in [8], in test [16], in test [9], in [19] and in [10] was > 100 µM (inactive) throughout. The GI50 in test [11], in test [18], in test [12], in test [13], in test [14] and in test [15] was > 100 µM (inactive) throughout.

For `O=C(CN1CCCC1=O)CS(=O)(=O)c1ccccc1`, the GI50 in test [1], in test [2], in [4], in [5], in [6] and in [8] was > 100 µM (inactive) each time. Besides, the GI50 in test [16], in test [9], in [11], in test [18], in [12] and in [13] was > 100 µM (inactive) throughout. Moreover, the GI50 in test [14] and in test [15] was > 100 µM (inactive) each time.

With `COC(=O)c1cn(CCCCO)nn1`, the GI50 in test [1], in test [2], in test [3], in test [4], in test [5] and in test [7] was > 100 µM (inactive) in each case. Moreover, the GI50 in test [8], in test [16], in test [9], in [19], in test [10] and in test [11] was > 100 µM (inactive) in each case. The GI50 in [18], in test [13], in test [14] and in [15] was > 100 µM (inactive) throughout.

`CCC1(CC)C(=O)N(C(=O)c2ccc(C)cc2)N(C(=O)c2ccc(C)cc2)C1=O`: the GI50 in [1] is > 75 µM (inactive); in [2] it was 63.2 µM (inactive); in [3] it was 54.2 µM (inactive); in test [4], 35 µM (inactive); in test [5], > 75 µM (inactive); in test [6], 16.8 µM (inactive). The GI50 in test [7] is > 75 µM (inactive); in test [8] it was 72.9 µM (inactive); in test [16] it was 65.6 µM (inactive); in test [9], 73.1 µM (inactive); in [19] it was 52 µM (inactive); in [11] it was 45.5 µM (inactive). Further, the GI50 in [12] was 28.4 µM (inactive); in [13], 27.2 µM (inactive); in [14], 33.1 µM (inactive); in test [15], > 75 µM (inactive).

Consider `CCOC(=O)c1c(N=C(S)Nc2ccc(Cl)cc2)sc2c1CCN(C)C2`, for which the GI50 in test [1], in test [2], in test [3], in [5], in [8] and in test [16] was > 100 µM (inactive) in each case. The GI50 in test [9] is > 100 µM (inactive); in test [19] it was > 100 µM (inactive); in test [17], > 100 µM (inactive); in [11], > 100 µM (inactive); in test [18], 72.6 µM (inactive); in test [12], 32.9 µM (inactive). Also, the GI50 in test [13] is > 100 µM (inactive); in test [14], 26.9 µM (inactive); in [15], > 100 µM (inactive).

As to `c1ccc2c(c1)[nH]c1nc3cc(-c4ccc5nc6c(nc5c4)[nH]c4ccccc46)ccc3nc12`, the GI50 in test [1] is > 100 µM (inactive); in test [2], > 100 µM (inactive); in test [3], > 100 µM (inactive); in test [4], 69.3 µM (inactive); in test [5] it was > 100 µM (inactive); in test [6], 5.42 µM (inactive). The GI50 was > 100 µM (inactive) in test [7]; > 100 µM (inactive) in [8]; > 93.5 µM (inactive) in [16]; > 100 µM (inactive) in test [9]; > 100 µM (inactive) in test [19]; > 100 µM (inactive) in [17]. In addition, the GI50 was 20.5 µM (inactive) in test [11]; 20.9 µM (inactive) in test [12]; > 59 µM (inactive) in [13]; 12.9 µM (inactive) in [14]; > 100 µM (inactive) in test [15].

For `CC1=NC(=Cc2ccc([N+](=O)[O-])cc2)C(=O)N1n1c(-c2ccccc2)nc2ccccc2c1=O`, the GI50 in test [1] is 95.9 µM (inactive); in test [2] it was 49 µM (inactive); in test [3], 52 µM (inactive); in test [5], 83 µM (inactive); in test [6] it was 32.1 µM (inactive); in test [8], 52 µM (inactive). For the same molecule, the GI50 in [16] is 60.1 µM (inactive); in test [9], 80.7 µM (inactive); in test [19], 35.2 µM (inactive); in [11], 29.1 µM (inactive); in test [18] it was 67.3 µM (inactive); in test [12], 32.3 µM (inactive). In addition, the results for the GI50 in test [13], in [14] and in [15] were 21.8 µM (inactive), 32.8 µM (inactive) and 36.6 µM (inactive), respectively.

Regarding `CC1CC/C(=C\c2ccc(Cl)cc2)c2nc(N)c(C#N)c(-c3ccc(Cl)cc3)c21` (stereo unspecified), the GI50 in test [1] is 58.6 µM (inactive); in [2], 88.1 µM (inactive); in [3], > 100 µM (inactive); in test [4] it was 17.7 µM (inactive); in test [5], > 100 µM (inactive); in [6], 30.3 µM (inactive). In addition, the GI50 in test [7] was > 100 µM (inactive); in test [8], 44.1 µM (inactive); in [16] it was 70.6 µM (inactive); in [9] it was 45.4 µM (inactive); in test [19], 21.8 µM (inactive); in test [17] it was 26.3 µM (inactive). Besides, the GI50 in test [11] was 22.8 µM (inactive); in test [18] it was 48.8 µM (inactive); in test [12], 3.07 µM (inactive); in [13], 30.3 µM (inactive); in test [14], 23.5 µM (inactive); in test [15], 63.2 µM (inactive).

With `CC1CC(C#N)=C2NCCN2C1=O` (stereo unspecified), the GI50 in test [1] is > 100 µM (inactive); in test [2], 16.4 µM (inactive); in test [3], > 100 µM (inactive); in test [4], > 100 µM (inactive); in [5], > 100 µM (inactive); in [6] it was 95.1 µM (inactive). The GI50 in test [7] was > 100 µM (inactive); in test [8] it was > 100 µM (inactive); in [16], > 100 µM (inactive); in test [9], > 100 µM (inactive); in test [19], 51.9 µM (inactive); in [11], 20.8 µM (inactive). Further, the GI50 in test [18], in test [12], in test [13], in test [14] and in test [15] was > 100 µM (inactive) throughout.

Source of the values: ChEMBL document CHEMBL1201862, “PubChem BioAssay data set” (2004).
